Measured values: US7728036B2, “Methods for delivery of catecholic butanes for treatment of tumors” (priority 2003, dated 2010)

Experiments:
[1] = Toxicokinetic analysis of M4N serum concentration in beagle dogs; conditions: dog, in vivo
Procedure: Blood samples from the CET group animals were collected via the jugular vein on Study Day (SD) 1, SD 3, SD 6, and SD 8 at the following timepoints: predose, 0.25, 0.5, 1, 2, 4, 8, and 16 hours following the completion of the approximate 4-hour infusion.
Blood samples from the DMSO group animals were collected via the cephalic vein on SD 1, SD 3, SD 6, and SD 8 at the following timepoints: predose, 0.25, 0.5, 1, 2, 4, 8, and 16 hours following the final injection dose of M4N-DMSO.
Blood samples collected from both groups of animals were processed for plasma and serum for TK analysis.
The plasma and serum samples were sent to MedTox Laboratories, the Sponsor's designated laboratory for TK analysis. TK analysis of M4N plasma and serum concentration-time data was performed using a validated method (M200406) by MedTox Laboratories and analyzed by noncompartmental methods to obtain estimates of toxicokinetic parameters (where data allow), but not necessarily limited to, Cmax, Tmax and AUC.

[2] = mouse, in vivo
Procedure: M4N Tissue Distribution Studies Using ^3H-M4N. Harlan ICR mice or C3 cell-induced tumor-bearing C57bl/6 mice were injected via tail vein or intraperitoneally with 100 μL of Cremaphor-ethanol based solvent containing 100 μCi of tritiated M4N and 60 mM of cold M4N. At the specified time post-injection, the mice were sacrificed, the organs and blood were collected, weighed, then dissolved overnight in 4 M guanidine isothiocyanate (GITC). The insoluble pellet was then further extracted with EtOH. Tritium content of both the GITC extract and the EtOH extract was measured on a Packard scintillation counter and the quantity of M4N in each organ was calculated based on the specific activity of the inoculum.
To determine the distribution of M4N in tissues over time following a single application, and also to assess the ability to deliver M4N to a distant tumor, six C3 cell-induced tumor bearing mice (A-F) were treated i.p. with ^3H-M4N as described above. At 4 hours, 6 hours, 18 hours, and 6 days post-injection, the quantities of ^3H-M4N in various tissues and the tumors were measured.

[3] = Tissue distribution after long-term (14 weeks) oral feeding of M4N (HPLC); format: in vivo, mice; conditions: 14 weeks continuous oral feeding of M4N food balls
Procedure: Tissue Distribution and Toxicity Analysis Following Short-Term and Long-Term Oral Feeding. For short-term feeding experiments, 30 mg of M4N dissolved in 300 μL castor oil was orally administered to each of 6 mice. At 2 h, 4 h, and 8 h post-administration time points, 2 mice were sacrificed, the organs and blood were collected, and the M4N extracted and quantitated as described below. In long-term feeding experiments, mice were fed food balls consisting of M4N dissolved in corn oil and Basal Mix (Harlan Teklad; Madison, Wis.; Cat. # TD 02273) for 14 weeks. Food balls weighed 9 g and contained 242 mg M4N each. Two mice, one male and one female, were reserved for long-term drug retention studies; and fourteen mice, both male and female, were used for long-term drug toxicity studies. At the end of feeding, mice were sacrificed, the organs and blood were collected, and the M4N extracted and quantitated as described below.
M4N Extraction and HPLC Analysis Following Oral Feeding. Organs and blood were harvested from M4N-fed mice, then frozen overnight at −80° C. Prior to freezing, gastro-intestinal organs (stomach, small intestine, colon) were cut open longitudinally and washed thoroughly with PBS to remove any contents. The following day, organs were cut into small pieces on dry ice with a razor blade, dried in a Speed-vac, then crushed into a rough powder using a mortar and pestle. Samples were extracted overnight in 100% ethanol with shaking. Samples were centrifuged and the supernatant collected. Pellets were extracted two more times in 100% ethanol overnight with shaking. The pooled ethanol extracts were evaporated on bench top for several days, then re-extracted with ethyl acetate, and dried completely in a Speed-vac. The dried samples were then analyzed quantitatively by HPLC and M4N was identified by mass spectroscopy using pure M4N as a standard.
HPLC Quantitation of M4N. Samples from a single mouse at each time point were sent to KP Pharmaceuticals (Bloomington, Ind.) for HPLC analysis. HPLC conditions were described as follows: 35%:0.1% TFA in H2O, 65%=“CAN.” The M4N standard was prepared by diluting 10.01 mg M4N in 100 mL of CAN, then sonicating for 5 min. (2002 ng/injection). The samples were prepared by adding 400 μL EtOH and sonicating for 2 min. or until complete dissolution was achieved. The injection volume for the samples was 100 μL.
The objective of the long-term feeding experiments was to measure the steady state levels of M4N in various mouse organs following continuous oral administration for 14 weeks. Food balls weighing approximately 9 g and containing approximately 280 mg M4N were continually fed to wild-type mice for 14 weeks. A single 9 g food ball is consumed by a single mouse in about 3 days, which translates to […] of M4N consumed or administered daily. […] Between 350 μg and 900 μg M4N per gram tissue was measured in the GI tract organs and the spleen; 15 μg/g to 30 μg/g M4N was measured in the lungs, pancreas, seminal vesicles, blood, and fat; and 5 μg/g to 13 μg/g M4N was measured in the heart, liver, kidneys, and bladder.

For COc1ccc(C[C@@H](C)[C@@H](C)Cc2ccc(OC)c(OC)c2)cc1OC [M4N, meso-1,4-bis(3,4-dimethoxyphenyl)-2,3-dimethylbutane], the “Blood levels of M4N achieved with minimal toxicity” value [1] was “up to 14,000 ng/ml”, the “M4N tissue levels relative to levels seen at 6 hours” value [2] was 5-10% and the “M4N per gram of wet tumor” value ([2]; ip) was 294 ng per gram of wet tumor. The “Time of peak M4N tissue levels” value ([2]; ip) was “approximately 6 hours”, the “M4N” value ([3]; Bladder) was 6.24 µg/g and the “M4N” value ([3]; Blood) was 23.13 µg/g. For the same molecule, the “M4N” value ([3]; Caecum) was 440.23 µg/g, the “M4N” value ([3]; Fat) was 17.41 µg/g and the “M4N” value ([3]; Heart) was 12.62 µg/g. For the same molecule, the “M4N” value ([3]; Kidneys) was 8.33 µg/g, the “M4N” value ([3]; Lg. Intestine) was 350.88 µg/g and the “M4N” value ([3]; Liver) was 5.89 µg/g. The “M4N” value ([3]; Lungs) was 23.09 µg/g, the “M4N” value ([3]; Pancreas) was 28.81 µg/g and the “M4N” value ([3]; Seminal Vesicles) was 16.79 µg/g. The “M4N” value ([3]; Small Intestine) was 906.27 µg/g, the “M4N” value ([3]; Spleen) was 302.78 µg/g and the “M4N” value ([3]; Stomach) was 409.27 µg/g.
